Experimental data from paper PMC10327518 (Journal of Enzyme Inhibition and Medicinal Chemistry, 2023).
“And” between values parts separate entries of the source, which are not always exact repeats. Identical values can stand only once. Like-named read-outs stand apart in the source and are kept apart here.

What was measured:
[1] = target: T1, eeAChE (electric eel AChE) (Electrophorus electricus, UniProt O42275); assay: biochemical; conditions: for inhibition at 25 µM: read-out: Inhibition percent rate eeAChE
T1 construct: purchased Sigma-Aldrich Co; host or cells: electric eel (natural source)
T1 sequence (O42275 24-633): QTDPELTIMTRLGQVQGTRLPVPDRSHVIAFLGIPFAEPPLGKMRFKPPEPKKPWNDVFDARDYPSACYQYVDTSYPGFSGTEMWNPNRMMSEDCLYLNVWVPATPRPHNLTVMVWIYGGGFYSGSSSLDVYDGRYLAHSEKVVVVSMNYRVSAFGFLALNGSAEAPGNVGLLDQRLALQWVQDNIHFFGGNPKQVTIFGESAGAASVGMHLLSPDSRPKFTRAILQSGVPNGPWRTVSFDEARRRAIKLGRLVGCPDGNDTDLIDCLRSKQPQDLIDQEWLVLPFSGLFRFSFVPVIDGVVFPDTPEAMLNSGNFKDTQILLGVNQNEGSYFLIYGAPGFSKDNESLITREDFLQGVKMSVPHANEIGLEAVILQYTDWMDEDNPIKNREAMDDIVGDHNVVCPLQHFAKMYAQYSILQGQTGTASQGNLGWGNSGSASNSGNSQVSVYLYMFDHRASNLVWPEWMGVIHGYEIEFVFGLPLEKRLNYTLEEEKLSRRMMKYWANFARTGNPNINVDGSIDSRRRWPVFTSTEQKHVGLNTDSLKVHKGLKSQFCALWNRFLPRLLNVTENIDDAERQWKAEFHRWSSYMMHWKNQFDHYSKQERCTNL
Description: (§1) 2.1 Inhibition experiments of AChE and BuChE. The modified Ellman method was
(§2) performed to test the AChE and BChE inhibitory ability of the compounds, using
(§3) eeAChE and eqBChE (Sigma-Aldrich Co.). […]

[2] = target: T2, eqBuChE (equine serum BuChE) (Equus caballus, UniProt P81908); assay: biochemical; conditions: for inhibition at 25 µM: read-out: Inhibition percent rate eqBuChE; for SI: SI = IC50 (AChE)/IC50 (BuChE)
T2 construct: purchased Sigma-Aldrich Co; host or cells: equine serum (natural source)
T2 sequence (P81908 whole entry): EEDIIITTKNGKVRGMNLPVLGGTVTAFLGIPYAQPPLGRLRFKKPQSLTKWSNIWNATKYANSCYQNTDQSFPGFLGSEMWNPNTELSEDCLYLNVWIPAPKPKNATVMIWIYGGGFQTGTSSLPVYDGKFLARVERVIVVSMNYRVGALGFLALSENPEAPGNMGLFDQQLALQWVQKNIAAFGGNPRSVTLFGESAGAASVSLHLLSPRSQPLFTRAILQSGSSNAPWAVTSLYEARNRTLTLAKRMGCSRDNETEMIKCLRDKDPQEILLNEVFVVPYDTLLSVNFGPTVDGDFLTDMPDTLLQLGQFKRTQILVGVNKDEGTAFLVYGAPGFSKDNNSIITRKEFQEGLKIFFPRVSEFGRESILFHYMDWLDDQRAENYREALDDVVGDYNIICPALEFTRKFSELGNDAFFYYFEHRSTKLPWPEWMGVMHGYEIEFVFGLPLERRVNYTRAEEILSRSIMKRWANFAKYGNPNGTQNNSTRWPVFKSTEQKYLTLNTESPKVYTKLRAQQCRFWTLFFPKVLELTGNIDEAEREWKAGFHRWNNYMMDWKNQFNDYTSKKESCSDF
Description: as §1, §2, §3

eqBuChE = target: T3, eqBuChE (Equus caballus, UniProt P81908); type: biochemical, equine
T3 construct: purchased Sigma-Aldrich Co; host or cells: equine serum (natural source)
T3 sequence (P81908 whole entry): as above
Source text: Further, the recovery capability of BuChE inhibitory effect after dilution was monitored by time.
Figure 2.

BV-2 cells = assay: Cytotoxicity on BV-2 cells, CCK-8 assay; type: cell-based; conditions: at 10 μM
Description: 5a was chosen to evaluate the anti-inflammation property through testing the production of IL-1β, IL-6, and NO in LPS-induced BV-2 cells[25]^,[26]. First of all, the cytotoxicity of 5a was determined through the CCK-8 assay.
2.1 Inhibition experiments of AChE and BuChE. The modified Ellman method was performed to test the AChE and BChE inhibitory ability of the compounds, using eeAChE and eqBChE (Sigma-Aldrich Co.). The detailed procedure referenced our […]
2.2 Anti-inflammatory property. BV-2 cells were cultured in DMEM containing 10% fetal bovine serum, 100 U/mL penicillin, 100 U/mL streptomycin, and 1% nonessential amino acid at 37℃ with 5% CO2.
BV-2 cells in logarithmic growth stage were digested and centrifuged, and then resuspended in DMEM medium containing 1% penicillin-streptomycin and 10% fetal bovine serum. The cells was adjusted to 1.2 × 10^4 cells/well, and then seeded evenly in 96-well cell culture plates. The cells were incubated for 36 h at 37℃ with 5% CO2. […]
BV-2 cells (2 × 10^5 cells/well) were seeded in a 24-well cell culture plates. […] The content of NO in cell culture supernatant was determined by Griess method, and the levels of cytokines IL-6 and IL-1β in cell culture supernatant were determined by IL-6 ELISA kit and IL-1β ELISA kit, respectively.

[3] = test system: IL-6 production in LPS-stimulated BV-2 cells; assay: IL-6 production in LPS-stimulated BV-2 cells (ELISA); type: cell-based; conditions: LPS 1 μg/mL
[4] = test system: IL-1β production in LPS-stimulated BV-2 cells; assay: IL-1β production in LPS-stimulated BV-2 cells (ELISA); type: cell-based
[5] = test system: NO release in LPS-stimulated BV-2 cells; assay: NO release in LPS-stimulated BV-2 cells (Griess method); type: cell-based; conditions: 1, 3, and 9 μM; LPS 1 μg/mL (model 31.9 μM)
PC12 cells = assay: Cytotoxicity on PC12 cells, CCK-8 assay; type: cell-based; conditions: at 30 μM
Source text: (§4) 2.3 Neuroprotective effects on Aβ25-35-induced PC12 cells injury.
(§5) (1) Materials and reagents. PC12 cell (Purchased from the Cell Bank of Shanghai
(§6) Institute of Cell Biology, Chinese Academy of Sciences),
(§7) DME H-21 4.5g/Liter Glucose(Gibco), Fetal bovine serum (Vicente),
(§8) cellcountingkit-8, CCK8(Shanghai Biyuntian Biotechnology Co. , Ltd), 1%
(§9) penicillin-streptomycin (Double antibody, cellmax), Double antibody (Beijing
(§10) Co., Ltd), a phosphate -buffered solution , (PBS, Beijing Solebao Technology Co., Ltd),
(§11) (2) Istrument. Cell culture incubator(Thermo Scientific), Ultra-clean
(§12) workbench(Jiangsu Sujing Group Co., Ltd), Inverted phase-contrast fluorescence
(§13) microscope(Japan Nikon Corporation), Varioska full-wavelength multifunction
(§14) microplate reader(Thermo Scientific), Digital display constant temperature water bath
(§15) pot(Bangsi Instrument Technology Co., Ltd), 1/100,000 electronic balance(Shanghai
Jinghai Instrument Co., Ltd).
(§16) In this experiment, the cell viability was detected using CCK-8 kit and
(§17) (3) PC12 Cell complete medium formulation. Recover PC12 cells, use 10% fetal
(§18) bovine serum 50mL, 5% equine serum 25mL and 1% penicillin mixture 5mL, and
(§19) finally add DMEM high-sugar medium solution to 500mL, that is, to obtain.
(§20) (4) PC12 Cell Recover. Quickly remove the cells from the -80 °C freezer, shake
in a 37 °C water bath pot to dissolve quickly, disinfect the cryopreservation tube and […]

[6] = Stability in artificial gastrointestinal fluids; type: in vitro ADME; conditions: 37 °C
Description: Based on the above data, 5a was chosen to evaluate the stabilities by artificial gastrointestinal solution, blood plasma, and rat liver microsomes.
Cell viability(%) = (Asample-Ablank)/(Acontrol-Ablank) ×100%. Asample, Ablank and Acontrol
medium, or vehicle, respectively.
method described in China Pharmacopoeia (version 2015). The artificial gastric fluid
described above without pepsin and trypsin. Compound 5a (1 mg/mL, n = 3) was
Supernatant was collected by
were processed by GraphPad Prism 8.0 software.
Solution B (25 mL) contained

[7] = Rat liver microsomes stability; type: in vitro ADME; conditions: n = 3, read-out: t1/2 in rat liver microsomes
Description: microsomes was purchased from Dalian Meilun Biotechnology Co., Ltd, DaLian,
China. Briefly, solution A (10 mL) contained G-6-P-Na2 (200 mg), NADPNa2 (200
G-6-P-DH (1000 U), Na-Citrate2 (200 mg), and H2O was used as a solvent. NADPH
solution (1 mM) was composed by solution A and solution B (v/v = 5:1). Compound
was dissolved in DMSO to obtain 1 mg/mL stock solution. Rat liver microsomes was
added to compound solution (the final concentration of compound and rat liver
microsomes was 10 μg/mL and 0.5 mg/mL, respectively) (n = 3). The reaction was
started by the addition of NADPH. The total mixture (200 μL) was incubated at 37 °C.
Cold methanol (600 μL) was added at 0, 5, 15, 20, 30, 45 and 60 min , respectively, to
stop the reaction. Samples were centrifuged at 13000 rpm fo r 10 min at 4 °C, and 100
μL supernatant was removed and analyzed by UPLC-MS/MS. The stability results
were presented as % remaining vs. time.

Plasma stability = type: in vitro ADME; conditions: rat, n = 3, read-out: t1/2 in blood plasma (converted)
Description: (3) The stability of compound was performed in rat plasma.
mg/mL) were dissolved in DMSO, and the reaction (10 μg/mL, n = 3) was prepared
by mixing 198 μL plasma with 2 μL compounds solution, then incubated in 37 ◦C and
stopped by adding 600 μL methanol at time of 0, 0.5, 1, 1.5, 2 and 3 h, followed by
centrifugation at 13,000 rpm for 10 min at 4 °C. The supernatant was dried and
redissolved in 100 μL methanol. After centrifugation, the supernatant was analyzed
by UPLC-MS/MS. The stability data was presented as remaining percentage vs time.

[8] = test system: scopolamine-induced cognitive dysfunction in mice; assay: Step-down passive avoidance task, scopolamine-induced cognitive dysfunction; type: in vivo
Description: The in vivo effects of 5a were determined through the step-down passive avoidance task. […]. page 9: […]
Assay method. The step-down passive avoidance task was employed to investigate
the effects of 5a on scopolamine-induced memory impairment.21,22 Sixty mice were
random divide into six groups. […]

[9] = test system: Aβ25-35-induced PC12 cell injury; assay: cells; conditions: Rattus norvegicus, PC-12, read-out: PC12 cells viability
Source text: as §4, §5, §6, §7, §8, §9, §10, §11, §12, §13, §14, §15
Jinghai Instrument Co., Ltd).
as §16, §17, §18, §19, §20
in a 37 °C water bath pot to dissolve quickly, disinfect the cryopreservation tube and
transfer it to the ultra-clean table, transfer the cryopreservation in the cryopreservation
tube to a 15 mL centrifuge tube, add 3 mL of complete medium, gently blow well
with a pipette, centrifuge at 1000 *g at room temperature for 5 min, discard the upper
layer of medium, add 4 mL complete medium again, gently blow well and transfer to
the culture flask, transfer to the incubator at 37 °C, 5% CO2, saturation humidity, and
change the liquid every other day.
(5) PC12 Cell Passage. During the logarithmic growth phase of cell growth, add
complete medium to stop digestion, transfer to a 15 mL centrifuge tube, centrifuge at
1000 *g at room temperature for 5 min, discard the upper layer medium, 1:4
(7) Preparation of sample solutions. […]

Kunming mice = assay: Acute toxicity (safety profile) in mice; conditions: 500 mg/kg, intragastric administration
Description: gender) were supplied by the Center of Experimental Animals of Sichuan Academy of
Chinese Medicine Sciences (eligibility certiﬁcation no. SCXK-Chuan2018-19). Mice
20−22 °C with a relative humidity of 60−70%. Sterile food and water were provided
according to institutional guidelines. Prior to each experiment, mice were fasted
overnight and allowed free access to water.
1000 mg/kg (n = 6 per group) by intragastric administration. After the administration
occasionally thereafter for 14 days for the onset of any delayed effects. All animals
were sacrificed on the 14th day after drug administration and were macroscopically

cholinesterase = target: cholinesterase; set-up: method as in PMID 11429429; conditions: read-out: IC50 anticholinesterase activity; cited from earlier work
[10] = mean ± SD, read-out: IC50 ± SD eeAChE
[11] = mean ± SD, read-out: IC50 ± SD eqBuChE

O=C(O)c1ccc(O)cc1O [Compound 1a, 2,4-dihydroxybenzoic acid]
inhibition at 25 µM [1]: 16.3 ± 0.17% | inhibition at 25 µM [2]: 25.8 ± 0.93%

O=C(O)c1cc(O)ccc1O [Compound 1b, 2,5-dihydroxybenzoic acid]
inhibition at 25 µM [1]: 20.6 ± 1.2% | inhibition at 25 µM [2]: 18.2 ± 0.67%

CN(C)C(=O)Oc1ccc(C(=O)N2CCC(Cc3ccccc3)CC2)c(OC(=O)N(C)C)c1 [Compound 5a, 4-(4-Benzylpiperidine-1-carbonyl)-1,3-phenylene bis(dimethylcarbamate)]
IC50 [1]: 7.8 ± 0.36 µM | IC50 [2]: 0.53 ± 0.01 µM | SI [2]: 14.7 | BuChE activity recovered (eqBuChE; 0.1 × IC50, at 120 min, Figure 2(B)): 63.9% | BChE activity (% control) (eqBuChE; 1*IC50, Figure 2(A)): 48.6 % control | eqBuChE activity restored (eqBuChE; after dilution to 0.1 × IC50, text on Figure 2(A)): no significant recovery | BChE activity (% control) (eqBuChE; diluted to 0.1*IC50, Figure 2(A)): 46.7 % control | Type of inhibition (reversibility) (eqBuChE; from recovery after dilution): pseudo-irreversible | Cytotoxicity on BV-2 cells (BV-2 cells): did not produce significant cytotoxicity | Level of IL-6 ([3]; 5a 3 μM): 505.3 pg/mL | Level of IL-6 ([3]; 5a 9 μM): 971.1 pg/mL | Level of IL-1β ([4]; 5a 1 μM, LPS 1 μg/mL (model 302.7 pg/mL)): 67.2 pg/mL | Level of IL-1β ([4]; 5a 3 μM, LPS 1 μg/mL): 90.9 pg/mL | Level of IL-1β ([4]; 5a 9 μM, LPS 1 μg/mL): 163.4 pg/mL | Release volume of NO [5]: remarkably declined | Cytotoxicity on PC12 cells (PC12 cells): no obvious cytotoxicity | Residual amount ([6]; after 8 h incubation in artificial gastric juice): 95.6% | Residual amount ([6]; after 8 h incubation in artificial intestinal juice): 110.6% | Residual amount ([6]; after 8 h incubation in blank gastric juice): 99.5% | Residual amount ([6]; after 8 h incubation in blank intestinal juice): 97.5% | half-life at 10 μg/mL [7]: 0.32 h | half-life at 10 μg/mL (Plasma stability): 3.25 h | Step-down latency ([8]; 5a 1.23 mg/kg, scopolamine 2.0 mg/kg): 140.1 s | Step-down latency ([8]; 5a 2.45 mg/kg, scopolamine 2.0 mg/kg): 77.8 s | Step-down latency ([8]; 5a […], scopolamine 2.0 mg/kg): 105.2 s | viability at 1 µM [9]: 61.7% | viability at 3 µM [9]: 68.6% | viability at 9 µM [9]: 83.3% | Abnormal behaviour (safety profile) (Kunming mice): did not present abnormal behaviour

CCN(C)C(=O)Oc1ccc(C(=O)N2CCC(Cc3ccccc3)CC2)c(OC(=O)N(C)CC)c1 [Compound 5b, 4-(4-Benzylpiperidine-1-carbonyl)-1,3-phenylene bis(ethyl(methyl)carbamate)]
IC50 [1]: 6.3 ± 0.41 µM | IC50 [2]: 2.6 ± 1.8 µM | SI [2]: 2.4

CC(C)N(C(=O)Oc1ccc(C(=O)N2CCC(Cc3ccccc3)CC2)c(OC(=O)N(C(C)C)C(C)C)c1)C(C)C [Compound 5c, 4-(4-Benzylpiperidine-1-carbonyl)-1,3-phenylene bis(diisopropylcarbamate)]
IC50 [1, 10]: 7.1 ± 0.23 µM | SI [2]: 0.66 | IC50 [2, 11]: 10.8 ± 0.56 µM

O=C(Oc1ccc(C(=O)N2CCC(Cc3ccccc3)CC2)c(OC(=O)N2CCCC2)c1)N1CCCC1 [Compound 5d, 4-(4-Benzylpiperidine-1-carbonyl)-1,3-phenylene bis(pyrrolidine-1-carboxylate)]
IC50 [1, 10]: 22.3 ± 1.8 µM | SI [2]: 2.6 | IC50 [2, 11]: 8.7 ± 0.93 µM

O=C(Oc1ccc(C(=O)N2CCC(Cc3ccccc3)CC2)c(OC(=O)N2CCOCC2)c1)N1CCOCC1 [Compound 5e, 4-(4-Benzylpiperidine-1-carbonyl)-1,3-phenylene bis(morpholine-4-carboxylate)]
IC50 [1, 10]: 18.3 ± 0.87 µM | SI [2]: 1.4 | IC50 [2, 11]: 13.1 ± 0.72 µM

CN(C)C(=O)Oc1ccc(OC(=O)N(C)C)c(C(=O)N2CCC(Cc3ccccc3)CC2)c1 [Compound 5f, 2-(4-Benzylpiperidine-1-carbonyl)-1,4-phenylene bis(dimethylcarbamate)]
IC50 [1]: 5.2 ± 0.35 µM | IC50 [2]: 16.3 ± 0.86 µM | SI [2]: 0.32

CCN(C)C(=O)Oc1ccc(OC(=O)N(C)CC)c(C(=O)N2CCC(Cc3ccccc3)CC2)c1 [Compound 5g, 2-(4-Benzylpiperidine-1-carbonyl)-1,4-phenylene bis(ethyl(methyl)carbamate)]
IC50 [1]: 4.9 ± 0.68 µM | IC50 [2]: 13.5 ± 0.52 µM | SI [2]: 0.36

CC(C)N(C(=O)Oc1ccc(OC(=O)N(C(C)C)C(C)C)c(C(=O)N2CCC(Cc3ccccc3)CC2)c1)C(C)C [Compound 5h, 2-(4-Benzylpiperidine-1-carbonyl)-1,4-phenylene bis(diisopropylcarbamate)]
IC50 [1, 10]: 8.2 ± 0.67 µM | SI [2]: 0.49 | IC50 [2, 11]: 16.7 ± 1.2 µM

COc1cc2c(cc1OC)C(=O)C(CC1CCN(Cc3ccccc3)CC1)C2 (stereo not drawn) [Donepezil, donepezil, reference compound]
Step-down latency ([8]; donepezil 2.0 mg/kg, scopolamine 2.0 mg/kg (model 42.1 s)): 144.3 s

CCN(C)C(=O)Oc1cccc([C@H](C)N(C)C)c1 [Rivastigmine, rivastigmine, reference compound]
BChE activity (% control) (eqBuChE): 53.2 % control and 49.8 % control | BuChE activity recovered (eqBuChE): 68.7% | Type of inhibition (reversibility) (eqBuChE): pseudo-irreversible | eqBuChE activity restored (eqBuChE): no significant recovery

O=C(O)c1ccccc1O [SA, Salicylic acid]
IC50 (cholinesterase): 346 µM
